The record followed here is US20120245137A1 (Zalicus Pharmaceuticals Ltd., priority 2009, published 2012).

Common to all, as to format: cell-based
For assay [1], the target named is human α1G T-type channels (Homo sapiens, UniProt O43497). As to the kind of experiment: T-type calcium channel block, whole cell patch clamp, α1G. The following applies: HEK cells stably expressing human α1G; mainly non-inactivated protocol; values above 10,000 nM represented as 10000. In short, it runs like this: (§1)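 Using standard patch-clamp, T-type currents were recorded from stably transfected human α1G or α1H HEK 293 cells. Separate non-inactivating and inactivation voltage protocols distinguished resting from voltage-dependent block by locally applied compound in 0.1-0.01% DMSO.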

For assay [2], the target named is N-type calcium channel subunits (α1B, α2δ, and β3a) (Homo sapiens, UniProt Q00975). As to the kind of experiment: Block of Cav2.2 channel, whole cell voltage clamp, manual and PatchXpress. The following applies: Table 5; table follows Assay Example 3 (whole cell voltage clamp / PatchXpress); assay not given. The method, boiled down:
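Percent block taken as current amplitude ratio with versus without compound, applied in rising doses; IC50 fitted where one cell received multiple doses. Protocol: 50 ms pulses to +20 mV at 0.067 Hz from […] or −90 mV holding; P/n leak subtraction, no junction-potential correction; manual and PatchXpress recordings.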

Assay [3] addresses human α1H T-type channels (Homo sapiens, UniProt O95180). As to the kind of experiment: T-type calcium channel block, whole cell patch clamp, α1H. To be noted: HEK cells stably expressing human α1H; mainly non-inactivated protocol; values above 10,000 nM represented as 10000. In short, it runs like this:
as §1

Chain of N-type calcium channel subunits (α1B, α2δ, and β3a) (Q00975 whole entry): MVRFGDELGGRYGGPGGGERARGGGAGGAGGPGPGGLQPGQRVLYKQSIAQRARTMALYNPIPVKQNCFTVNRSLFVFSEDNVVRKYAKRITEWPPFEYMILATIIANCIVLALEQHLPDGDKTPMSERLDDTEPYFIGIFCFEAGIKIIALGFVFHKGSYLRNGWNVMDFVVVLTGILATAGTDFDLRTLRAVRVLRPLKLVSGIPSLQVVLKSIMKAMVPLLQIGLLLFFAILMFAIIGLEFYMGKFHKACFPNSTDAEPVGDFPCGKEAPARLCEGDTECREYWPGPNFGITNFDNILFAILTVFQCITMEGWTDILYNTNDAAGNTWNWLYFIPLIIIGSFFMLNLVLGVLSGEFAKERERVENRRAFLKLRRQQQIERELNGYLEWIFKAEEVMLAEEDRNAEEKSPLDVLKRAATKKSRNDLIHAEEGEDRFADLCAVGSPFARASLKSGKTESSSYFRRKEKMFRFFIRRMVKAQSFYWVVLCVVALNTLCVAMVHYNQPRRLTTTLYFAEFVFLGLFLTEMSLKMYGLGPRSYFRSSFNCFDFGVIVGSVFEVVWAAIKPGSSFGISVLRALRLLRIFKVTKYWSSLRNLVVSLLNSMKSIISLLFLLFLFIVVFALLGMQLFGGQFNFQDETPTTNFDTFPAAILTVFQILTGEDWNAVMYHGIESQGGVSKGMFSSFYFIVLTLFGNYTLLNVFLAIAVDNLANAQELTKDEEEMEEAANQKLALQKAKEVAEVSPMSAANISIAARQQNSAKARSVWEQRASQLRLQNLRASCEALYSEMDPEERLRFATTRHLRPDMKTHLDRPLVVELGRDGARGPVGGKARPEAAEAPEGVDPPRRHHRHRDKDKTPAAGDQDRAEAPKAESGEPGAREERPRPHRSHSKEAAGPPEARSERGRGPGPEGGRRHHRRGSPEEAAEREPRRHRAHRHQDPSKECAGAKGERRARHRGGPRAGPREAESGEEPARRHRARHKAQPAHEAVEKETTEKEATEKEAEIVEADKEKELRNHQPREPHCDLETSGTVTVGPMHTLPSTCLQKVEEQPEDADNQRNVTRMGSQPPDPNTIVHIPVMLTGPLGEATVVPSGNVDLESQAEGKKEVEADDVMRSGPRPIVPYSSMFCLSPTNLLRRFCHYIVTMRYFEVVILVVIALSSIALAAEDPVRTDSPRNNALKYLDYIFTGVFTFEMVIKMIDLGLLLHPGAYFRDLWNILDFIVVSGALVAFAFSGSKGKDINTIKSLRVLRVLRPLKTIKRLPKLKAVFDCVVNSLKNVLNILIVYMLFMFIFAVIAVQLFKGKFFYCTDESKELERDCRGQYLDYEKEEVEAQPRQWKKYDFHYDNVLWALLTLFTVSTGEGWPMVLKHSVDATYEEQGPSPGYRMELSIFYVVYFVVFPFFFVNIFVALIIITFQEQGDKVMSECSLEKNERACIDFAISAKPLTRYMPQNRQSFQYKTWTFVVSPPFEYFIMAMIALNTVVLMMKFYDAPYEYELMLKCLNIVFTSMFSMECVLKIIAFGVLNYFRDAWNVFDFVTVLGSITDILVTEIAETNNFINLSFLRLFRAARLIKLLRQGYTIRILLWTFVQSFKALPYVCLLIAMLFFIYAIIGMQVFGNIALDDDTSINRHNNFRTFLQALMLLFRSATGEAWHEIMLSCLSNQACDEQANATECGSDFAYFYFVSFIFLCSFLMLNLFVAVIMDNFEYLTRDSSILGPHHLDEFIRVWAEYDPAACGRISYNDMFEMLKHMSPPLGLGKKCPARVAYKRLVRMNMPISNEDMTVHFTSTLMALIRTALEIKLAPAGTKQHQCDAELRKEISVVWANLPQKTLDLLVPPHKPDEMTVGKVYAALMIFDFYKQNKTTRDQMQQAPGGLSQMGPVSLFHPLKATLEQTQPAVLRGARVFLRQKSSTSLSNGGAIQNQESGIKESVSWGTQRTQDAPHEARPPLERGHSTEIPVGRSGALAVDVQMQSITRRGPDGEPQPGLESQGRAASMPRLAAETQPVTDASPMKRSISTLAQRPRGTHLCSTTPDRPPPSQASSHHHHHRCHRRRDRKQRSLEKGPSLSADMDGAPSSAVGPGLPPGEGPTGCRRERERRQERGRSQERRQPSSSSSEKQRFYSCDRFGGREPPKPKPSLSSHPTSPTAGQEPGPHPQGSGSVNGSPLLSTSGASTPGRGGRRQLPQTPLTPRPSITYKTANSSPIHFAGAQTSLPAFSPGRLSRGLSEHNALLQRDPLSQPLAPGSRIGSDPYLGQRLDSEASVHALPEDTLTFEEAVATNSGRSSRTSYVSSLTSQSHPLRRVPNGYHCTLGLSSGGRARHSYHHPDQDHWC
Chain of N-type calcium channel subunits (α1B, α2δ, and β3a) (P54289 25-1103 partner): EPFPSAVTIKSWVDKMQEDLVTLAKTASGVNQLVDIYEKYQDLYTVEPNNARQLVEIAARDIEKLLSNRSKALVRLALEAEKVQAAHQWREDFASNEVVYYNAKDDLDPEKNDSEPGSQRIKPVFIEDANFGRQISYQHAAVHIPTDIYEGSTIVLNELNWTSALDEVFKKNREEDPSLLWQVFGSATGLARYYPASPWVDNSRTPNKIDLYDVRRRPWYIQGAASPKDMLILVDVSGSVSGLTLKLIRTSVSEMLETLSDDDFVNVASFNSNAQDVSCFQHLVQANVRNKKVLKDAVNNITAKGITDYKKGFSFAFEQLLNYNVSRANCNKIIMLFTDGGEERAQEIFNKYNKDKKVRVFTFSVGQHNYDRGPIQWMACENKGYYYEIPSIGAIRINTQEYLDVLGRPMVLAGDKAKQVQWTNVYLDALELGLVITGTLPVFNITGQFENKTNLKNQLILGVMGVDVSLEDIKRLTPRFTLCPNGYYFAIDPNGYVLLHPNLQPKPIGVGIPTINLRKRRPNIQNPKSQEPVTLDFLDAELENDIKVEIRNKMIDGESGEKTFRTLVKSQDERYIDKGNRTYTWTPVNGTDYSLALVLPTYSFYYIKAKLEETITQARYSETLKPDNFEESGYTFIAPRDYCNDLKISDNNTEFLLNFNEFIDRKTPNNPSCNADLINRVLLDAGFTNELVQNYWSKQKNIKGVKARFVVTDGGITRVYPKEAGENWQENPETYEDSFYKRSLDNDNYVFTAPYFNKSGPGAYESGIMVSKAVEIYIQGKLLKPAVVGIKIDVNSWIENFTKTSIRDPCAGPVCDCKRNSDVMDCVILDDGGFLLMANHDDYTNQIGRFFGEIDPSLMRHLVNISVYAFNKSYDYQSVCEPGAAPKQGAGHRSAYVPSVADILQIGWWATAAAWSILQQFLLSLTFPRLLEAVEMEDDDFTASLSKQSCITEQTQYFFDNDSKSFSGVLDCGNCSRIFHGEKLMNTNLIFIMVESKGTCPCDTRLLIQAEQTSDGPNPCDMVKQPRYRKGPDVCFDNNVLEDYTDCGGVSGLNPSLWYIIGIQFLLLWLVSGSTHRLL
Chain of N-type calcium channel subunits (α1B, α2δ, and β3a) (P54284 whole entry partner): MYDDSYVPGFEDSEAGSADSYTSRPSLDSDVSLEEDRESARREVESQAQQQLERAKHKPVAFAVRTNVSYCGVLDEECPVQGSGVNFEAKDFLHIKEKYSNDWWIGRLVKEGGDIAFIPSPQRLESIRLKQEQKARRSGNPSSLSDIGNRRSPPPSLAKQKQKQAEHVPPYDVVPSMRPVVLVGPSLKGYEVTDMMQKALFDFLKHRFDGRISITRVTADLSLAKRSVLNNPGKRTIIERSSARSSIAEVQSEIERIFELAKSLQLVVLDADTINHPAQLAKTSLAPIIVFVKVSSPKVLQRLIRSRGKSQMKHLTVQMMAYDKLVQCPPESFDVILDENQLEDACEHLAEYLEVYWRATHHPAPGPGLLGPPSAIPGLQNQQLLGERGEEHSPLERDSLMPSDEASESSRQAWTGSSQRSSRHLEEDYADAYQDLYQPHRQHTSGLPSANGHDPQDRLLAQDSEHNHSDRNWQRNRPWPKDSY

In the case of `COc1cc(F)cc(C(=O)N[C@H]2CC[C@@H](CS(=O)(=O)c3cccc(C(F)(F)F)c3)CC2)c1` [Compound 136, 3-fluoro-5-methoxy-N-((1S,4S)-4-((3-(trifluoromethyl)phenylsulfonyl)methyl)cyclohexyl)benzamide], the half-inhibitory concentration (IC50) was determined as 540 nM in assay [1], 440 nM in assay [2] and 550 nM in assay [3].

Turning to `O=C(N[C@H]1CC[C@@H](CS(=O)(=O)c2cccc(C(F)(F)F)c2)CC1)c1ccc(Cl)c(OC(F)(F)F)c1` [Compound 139, 4-chloro-3-(trifluoromethoxy)-N-((1S,4S)-4-((3-(trifluoromethyl)phenylsulfonyl)methyl)cyclohexyl)benzamide], the figures for the IC50 in assay [1], in assay [2] and in assay [3] were 1880 nM, 390 nM and 1020 nM, respectively.

With `O=C(N[C@H]1CC[C@@H](CS(=O)(=O)c2cccc(C(F)(F)F)c2)CC1)c1ccc(Cl)c(F)c1` [Compound 141, 4-chloro-3-fluoro-N-((1S,4S)-4-((3-(trifluoromethyl)phenylsulfonyl)methyl)cyclohexyl)benzamide], the values for the IC50 in assay [1], in assay [2] and in assay [3] were 4250 nM, 600 nM and 3610 nM, respectively.

Consider `O=C(N[C@H]1CC[C@@H](CS(=O)(=O)c2cccc(C(F)(F)F)c2)CC1)c1ccc(F)c(Cl)c1` [Compound 142, 3-chloro-4-fluoro-N-((1S,4S)-4-((3-(trifluoromethyl)phenylsulfonyl)methyl)cyclohexyl)benzamide], for which the IC50 stood at 8230 nM in assay [1], 380 nM in assay [2] and 5880 nM in assay [3].

In the case of `O=C(N[C@H]1CC[C@@H](CS(=O)(=O)c2cccc(C(F)(F)F)c2)CC1)c1ccc(C(F)(F)F)cn1` [Compound 143, 5-(trifluoromethyl)-N-((1S,4S)-4-((3-(trifluoromethyl)phenylsulfonyl)methyl)cyclohexyl)picolinamide], the results for the IC50 in assay [1], in assay [2] and in assay [3] were more than 10000 nM, 950 nM and 6750 nM, respectively.

Turning to `CN(C(=O)CN[C@H]1CC[C@@H](CS(=O)(=O)c2cccc(C(F)(F)F)c2)CC1)C(C)(C)C` [Compound 145, N-tert-butyl-N-methyl-2-((1S,4S)-4-((3-(trifluoromethyl)phenylsulfonyl)methyl)cyclohexylamino)acetamide], the half-maximal inhibitory concentration (IC50) in assay [1] is 5830 nM; in assay [2] it was 1190 nM; in assay [3], 1340 nM.

On to `COc1cc(C(=O)NCC2(C)CCC(F)(S(=O)(=O)c3cccc(C(F)(F)F)c3)CC2)cc(Cl)n1` (stereo not drawn) [Compound 158, 2-chloro-N-((4-fluoro-1-methyl-4-(3-(trifluoromethyl)phenylsulfonyl)cyclohexyl)methyl)-6-methoxyisonicotinamide], for which the IC50 in assay [1] was more than 10000 nM; in assay [2], 480 nM; in assay [3], 7200 nM.

Take `CC1(CNCC(=O)NC(C)(C)C)CCC(F)(S(=O)(=O)c2cccc(C(F)(F)F)c2)CC1` (stereo not drawn) [Compound 159, N-tert-butyl-2-((4-fluoro-1-methyl-4-(3-(trifluoromethyl)phenylsulfonyl)cyclohexyl)methylamino)acetamide]: the IC50 in assay [1] was more than 10000 nM; in assay [2], 460 nM; in assay [3], more than 10000 nM.

For the compound `O=C(CNC1CCCCC1)N[C@H]1CC[C@H](CS(=O)(=O)c2cccc(C(F)(F)F)c2)CC1` [Compound 162, 2-(cyclohexylamino)-N-((1R,4R)-4-((3-(trifluoromethyl)phenylsulfonyl)methyl)cyclohexyl)acetamide], the 50% inhibitory concentration (IC50) in assay [1] is more than 10000 nM; in assay [2] it was 540 nM; in assay [3] it was more than 10000 nM.

With `O=C(CNC1CCC(F)(F)CC1)N[C@H]1CC[C@H](CS(=O)(=O)c2cccc(C(F)(F)F)c2)CC1` [Compound 165, 2-(4,4-difluorocyclohexylamino)-N-((1R,4R)-4-((3-(trifluoromethyl)phenylsulfonyl)methyl)cyclohexyl)acetamide], the IC50 in assay [1] was 4370 nM; in assay [2], 540 nM; in assay [3], 1390 nM.

`O=C(N[C@H]1CC[C@H](S(=O)(=O)c2cccc(C(F)(F)F)c2)CC1)c1cncc(C(F)(F)F)c1` [Compound 190, 5-(trifluoromethyl)-N-((1R,4R)-4-(3-(trifluoromethyl)phenylsulfonyl)cyclohexyl)nicotinamide]: the IC50 stood at 5560 nM in assay [1], 600 nM in assay [2] and 2530 nM in assay [3].

Consider `O=C(N[C@H]1CC[C@@H](S(=O)(=O)c2cccc(C(F)(F)F)c2)CC1)c1ccnn1CC(F)(F)F` [Compound 193, l-(2,2,2-trifluoroethyl)-N-((1S,4S)-4-(3-(trifluoromethyl)phenylsulfonyl)cyclohexyl)-1H-pyrazole-5-carboxamide], for which the IC50 in assay [1] is 6970 nM; in assay [2], 540 nM; in assay [3], 1590 nM.

In the case of `O=C(N[C@H]1CC[C@@H](S(=O)(=O)c2cccc(C(F)(F)F)c2)CC1)c1ccc(OCC(F)(F)F)nc1` [Compound 197, 6-(2,2,2-trifluoroethoxy)-N-((1S,4S)-4-(3-(trifluoromethyl)phenylsulfonyl)cyclohexyl)nicotinamide], the IC50 in assay [1] is more than 10000 nM; in assay [2], 470 nM; in assay [3], 5660 nM.

`Cc1cc(C(=O)N[C@H]2CC[C@@H](S(=O)(=O)c3cccc(C(F)(F)F)c3)CC2)c(C(F)(F)F)o1` [Compound 198, 5-methyl-2-(trifluoromethyl)-N-((1S,4S)-4-(3-(trifluoromethyl)phenylsulfonyl)cyclohexyl)furan-3-carboxamide]: the IC50 in assay [1] is more than 10000 nM; in assay [2], 270 nM; in assay [3], more than 10000 nM.

Take `O=C(N[C@H]1CC[C@@H](S(=O)(=O)c2cccc(C(F)(F)F)c2)CC1)c1cncc(C(F)(F)F)c1` [Compound 203, 5-(trifluoromethyl)-N-((1S,4S)-4-(3-(trifluoromethyl)phenylsulfonyl)cyclohexyl)nicotinamide]: the IC50 came to 2570 nM in assay [1], 590 nM in assay [2] and 1890 nM in assay [3].

As to `CC(C)(C)S(=O)(=O)c1ccsc1C(=O)N[C@H]1CC[C@@H](S(=O)(=O)c2cccc(C(F)(F)F)c2)CC1` [Compound 204, 3-(tert-butylsulfonyl)-N-((1S,4S)-4-(3-(trifluoromethyl)phenylsulfonyl)cyclohexyl)thiophene-2-carboxamide], the values for the IC50 in assay [1], in assay [2] and in assay [3] were 3550 nM, 210 nM and 6460 nM, respectively.

`Cn1nc(C(F)(F)F)cc1C(=O)NCC1(C)CCC(S(=O)(=O)c2cccc(C(F)(F)F)c2)CC1` (stereo not drawn) [Compound 206, 1-methyl-N-((1-methyl-4-(3-(trifluoromethyl)phenylsulfonyl)cyclohexyl)methyl)-3-(trifluoromethyl)-1H-pyrazole-5-carboxamide]: the IC50 in assay [1] is 3520 nM; in assay [2], 420 nM; in assay [3], 2550 nM.

`CC1(CNC(=O)c2ccc(C(F)(F)F)cc2S(C)(=O)=O)CCC(S(=O)(=O)c2cccc(C(F)(F)F)c2)CC1` (stereo not drawn) [Compound 207]: the half-inhibitory concentration (IC50) in assay [1] was 1340 nM; in assay [2], 260 nM; in assay [3] it was 1130 nM.

Consider `CC1(CNC(=O)c2ccc(C(F)(F)F)cn2)CCC(S(=O)(=O)c2cccc(C(F)(F)F)c2)CC1` (stereo not drawn) [Compound 208, N-((1-methyl-4-(3-(trifluoromethyl)phenylsulfonyl)cyclohexyl)methyl)-5-(trifluoromethyl)picolinamide], for which the values for the IC50 in assay [1], in assay [2] and in assay [3] were 1140 nM, 590 nM and 1110 nM, respectively.

Consider `COc1cc(C(=O)NCC2(C)CCC(S(=O)(=O)c3cccc(C(F)(F)F)c3)CC2)cc(Cl)n1` (stereo not drawn) [Compound 210, 2-chloro-6-methoxy-N-((1-methyl-4-(3-(trifluoromethyl)phenylsulfonyl)cyclohexyl)methyl)isonicotinamide], for which the IC50 in assay [1] amounted to 4950 nM; in assay [2] it was 380 nM; in assay [3], 4140 nM.

For `O=C(N[C@H]1CC[C@@](F)(S(=O)(=O)c2cccc(C(F)(F)F)c2)CC1)c1ccc(OCC(F)(F)F)nc1` [Compound 249, N-((1S,4S)-4-fluoro-4-(3-(trifluoromethyl)phenylsulfonyl)cyclohexyl)-6-(2,2,2-trifluoroethoxy)nicotinamide], the half-inhibitory concentration (IC50) in assay [1] came to 2650 nM; in assay [2], 260 nM; in assay [3], 360 nM.

Consider `O=C(N[C@H]1CC[C@](F)(S(=O)(=O)c2cccc(OC(F)(F)F)c2)CC1)c1ccc(F)c(Cl)c1` [Compound 250, 3-chloro-4-fluoro-N-((1R,4R)-4-fluoro-4-(3-(trifluoromethoxy)phenylsulfonyl)cyclohexyl)benzamide], for which the IC50 turned out to be 4280 nM in assay [1], 800 nM in assay [2] and 990 nM in assay [3].

For `O=C(N[C@H]1CC[C@@](F)(S(=O)(=O)c2cccc(OC(F)(F)F)c2)CC1)c1cc(F)cc(Cl)c1` [Compound 251], the IC50 in assay [1] amounted to 3590 nM; in assay [2], 150 nM; in assay [3], 570 nM.

Turning to `O=C(N[C@H]1CC[C@@](F)(S(=O)(=O)c2cccc(OC(F)(F)F)c2)CC1)c1cncc(C(F)(F)F)c1` [Compound 252, N-((1S,4S)-4-fluoro-4-(3-(trifluoromethoxy)phenylsulfonyl)cyclohexyl)-5-(trifluoromethyl)nicotinamide], the IC50 in assay [1] was found to be 450 nM; in assay [2], 350 nM; in assay [3] it was 670 nM.

Turning to `O=C(N[C@H]1CC[C@@](F)(S(=O)(=O)c2cccc(OC(F)(F)F)c2)CC1)c1ccnn1CC(F)(F)F` [Compound 253], the values for the IC50 in assay [1], in assay [2] and in assay [3] were 1190 nM, 320 nM and 460 nM, respectively.
